In patent US7998952B2, “Thiolactams and uses thereof” (Millennium Pharmaceuticals, Inc., priority 2008, dated 2011) one finds IC50 data, which are given here for 28 molecules.

T1 sequence (P53350 2-369 T210D): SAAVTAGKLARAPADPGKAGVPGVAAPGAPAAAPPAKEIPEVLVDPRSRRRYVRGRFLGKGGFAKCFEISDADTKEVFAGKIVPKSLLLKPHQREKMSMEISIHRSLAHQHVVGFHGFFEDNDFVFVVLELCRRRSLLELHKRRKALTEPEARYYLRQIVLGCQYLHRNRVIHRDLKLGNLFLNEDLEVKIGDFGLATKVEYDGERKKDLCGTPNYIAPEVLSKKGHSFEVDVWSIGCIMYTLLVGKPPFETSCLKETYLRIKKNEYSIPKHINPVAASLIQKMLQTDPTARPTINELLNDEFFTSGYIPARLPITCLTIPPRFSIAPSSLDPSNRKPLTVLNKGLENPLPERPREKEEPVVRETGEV

This assay has as its target T1, recombinant human PLK1[2-369]T210D (Homo sapiens, UniProt P53350, T210D).
T1 construct: recombinant human PLK1[2-369]T210D; Smt (SUMO) fusion partner (N, cleaved yes); host or cells: E. coli
In words: PLK1 DELFIA Kinase Assay. The conditions noted are these: 50 μM ATP, 2 μM peptide substrate, 0.3 nM enzyme, 90 minutes at room temperature. Format: biochemical. The procedure: Recombinant human PLK1 was expressed in E. coli as an N-terminal Smt fusion protein using a proprietary vector (pSGX4) by Structural Genomics (SGX). The fusion partner was removed through cleavage with Ulp1 after an initial purification using a Ni2+ affinity column.
PLK1 DELFIA® Kinase Assay
The enzymatic reaction mixture, with or without PLK inhibitors, was incubated 90 minutes at room temperature before termination with 50 μL of STOP buffer containing 1% BSA, 0.05% Tween20, 100 mM EDTA. 50 μL of the stopped enzyme reaction mixture was transferred to a Neutravidin-coated 384-well plate (Pierce) and incubated at room temperature for 60 minutes. […] The wells were washed and then the bound europium was liberated using 50 μL of Enhancement Solution (Perkin Elmer). Quantification of europium was done using a Pherastar (BMG Labtech)
The IC50 is the concentration that inhibits the measured activity by half. Turning to `Cc1nc(N(C)C2CCN(C)C2)ccc1Nc1ncc2c(n1)-c1ccc(Cl)cc1NC(=S)C2` (stereo not shown) [Compound I-3, 9-chloro-2-({2-methyl-6-[methyl(1-methylpyrrolidin-3-yl)amino]pyridin-3-yl}amino)-5,7-dihydro-6H-pyrimido[5,4-d][1]benzazepine-6-thione], the IC50 was in the range of 5 to 25 nM.
To `Cc1nc(N2CCC(N(C)C)CC2)ccc1Nc1ncc2c(n1)-c1ccc(Cl)cc1NC(=S)C2` [Compound I-69, 9-chloro-2-({6-[4-(dimethylamino)piperidin-1-yl]-2-methylpyridin-3-yl}amino)-5,7-dihydro-6H-pyrimido[5,4-d][1]benzazepine-6-thione] belongs below 5 nM; to `Cc1nc2c(cc1Nc1ncc3c(n1)-c1ccc(C(F)(F)F)cc1NC(=S)C3)C[C@@H](N(C)C)CC2` [Compound I-114], below 5 nM.
Regarding `CN(C)CCCc1cnc(F)c(Nc2ncc3c(n2)-c2ccc(Cl)cc2NC(=S)C3)c1` [Compound I-27, 9-chloro-2-({5-[3-(dimethylamino)propyl]-2-fluoropyridin-3-yl}amino)-5,7-dihydro-6H-pyrimido[5,4-d][1]benzazepine-6-thione], the IC50 is below 5 nM.
As for `CN(C)CCCc1cc2c(cc1Cl)NC(=S)Cc1cnc(Nc3cccnc3)nc1-2` [Compound I-33, 9-chloro-10-[3-(dimethylamino)propyl]-2-(pyridin-3-ylamino)-5,7-dihydro-6H-pyrimido[5,4-d][1]benzazepine-6-thione], the IC50 is 5 to 25 nM.
To `CNCCCc1cnc(C)c(Nc2ncc3c(n2)-c2ccc(C(F)(F)F)cc2NC(=S)C3)c1` [Compound I-62, 2-({2-methyl-5-[3-(methylamino)propyl]pyridin-3-yl}amino)-9-(trifluoromethyl)-5,7-dihydro-6H-pyrimido[5,4-d][1]benzazepine-6-thione] belongs below 5 nM.
To `Cc1nc(NC2CCOCC2)ccc1Nc1ncc2c(n1)-c1ccc(Cl)cc1NC(=S)C2` [Compound I-19, 9-chloro-2-{[2-methyl-6-(tetrahydro-2H-pyran-4-ylamino)pyridin-3-yl]amino}-5,7-dihydro-6H-pyrimido[5,4-d][1]benzazepine-6-thione] belongs below 5 nM; to `CN1CCN(c2ccc(Nc3ncc4c(n3)-c3ccc(C(F)(F)F)cc3NC(=S)C4)cn2)CC1` [Compound I-61, 2-{[6-(4-methylpiperazin-1-yl)pyridin-3-yl]amino}-9-(trifluoromethyl)-5,7-dihydro-6H-pyrimido[5,4-d][1]benzazepine-6-thione], below 5 nM.
To `Cc1ncc(CCCO)cc1Nc1ncc2c(n1)-c1ccc(C(F)(F)F)cc1NC(=S)C2` [Compound I-55, 2-{[5-(3-hydroxypropyl)-2-methylpyridin-3-yl]amino}-9-(trifluoromethyl)-5,7-dihydro-6H-pyrimido[5,4-d][1]benzazepine-6-thione] belongs below 5 nM.
`Cc1nc(NC(C)C)ccc1Nc1ncc2c(n1)-c1ccc(C(F)(F)F)cc1NC(=S)C2` [Compound I-57, 2-{[6-(isopropylamino)-2-methylpyridin-3-yl]amino}-9-(trifluoromethyl)-5,7-dihydro-6H-pyrimido[5,4-d][1]benzazepine-6-thione]: the IC50 is below 5 nM.
Take `Cc1nc(NCC2CCN(C)CC2)ccc1Nc1ncc2c(n1)-c1ccc(Cl)cc1NC(=S)C2` [Compound I-40, 9-chloro-2-[(2-methyl-6-{[(1-methylpiperidin-4-yl)methyl]amino}pyridin-3-yl)amino]-5,7-dihydro-6H-pyrimido[5,4-d][1]benzazepine-6-thione]: the IC50 was below 5 nM.
To `Cc1cc(NC2CCN(C)CC2)ncc1Nc1ncc2c(n1)-c1ccc(C(F)(F)F)cc1NC(=S)C2` [Compound I-74, 2-({4-methyl-6-[(1-methylpiperidin-4-yl)amino]pyridin-3-yl}amino)-9-(trifluoromethyl)-5,7-dihydro-6H-pyrimido[5,4-d][1]benzazepine-6-thione] belongs below 5 nM.
The value for `Cc1ncc(CCN2CCC(N(C)C)CC2)cc1Nc1ncc2c(n1)-c1ccc(Cl)cc1NC(=S)C2` [Compound I-59, 9-chloro-2-[(5-{2-[4-(dimethylamino)piperidin-1-yl]ethyl}-2-methylpyridin-3-yl)amino]-5,7-dihydro-6H-pyrimido[5,4-d][1]benzazepine-6-thione] was below 5 nM; that for `Cc1nc(CC2CCN(C)CC2)ccc1Nc1ncc2c(n1)-c1ccc(Cl)cc1NC(=S)C2` [Compound I-44, 9-chloro-2-({2-methyl-6-[(1-methylpiperidin-4-yl)methyl]pyridin-3-yl}amino)-5,7-dihydro-6H-pyrimido[5,4-d][1]benzazepine-6-thione] was 5 to 25 nM.
As for `CCN1CCC(c2cnc(C)c(Nc3ncc4c(n3)-c3ccc(Cl)cc3NC(=S)C4)c2)CC1` [Compound I-17, 9-chloro-2-{[5-(1-ethylpiperidin-4-yl)-2-methylpyridin-3-yl]amino}-5,7-dihydro-6H-pyrimido[5,4-d][1]benzazepine-6-thione], the IC50 is below 5 nM.
To `Cc1ncc(CCCN(C)C)cc1Nc1ncc2c(n1)-c1ccc(C3CC3)cc1NC(=S)C2` [Compound I-39, 9-cyclopropyl-2-({5-[3-(dimethylamino)propyl]-2-methylpyridin-3-yl}amino)-5,7-dihydro-6H-pyrimido[5,4-d][1]benzazepine-6-thione] belongs below 5 nM; to `Cc1nc(N2CCOCC2)ccc1Nc1ncc2c(n1)-c1cc(CCCN(C)C)c(Cl)cc1NC(=S)C2` [Compound I-83, 9-chloro-10-[3-(dimethylamino)propyl]-2-[(2-methyl-6-morpholin-4-ylpyridin-3-yl)amino]-5,7-dihydro-6H-pyrimido[5,4-d][1]benzazepine-6-thione], 5 to 25 nM; to `CCN1CCN(c2cnc(C)c(Nc3ncc4c(n3)-c3ccc(Cl)cc3NC(=S)C4)c2)C[C@@H]1C` [Compound I-66, 9-chloro-2-({5-[(3S)-4-ethyl-3-methylpiperazin-1-yl]-2-methylpyridin-3-yl}amino)-5,7-dihydro-6H-pyrimido[5,4-d][1]benzazepine-6-thione], below 5 nM.
The value for `Cc1ncc(CCCN(C)C)cc1Nc1ncc2c(n1)-c1cc(C(F)(F)F)ccc1NC(=S)C2` [Compound I-117, 2-({5-[3-(dimethylamino)propyl]-2-methylpyridin-3-yl}amino)-10-(trifluoromethyl)-5,7-dihydro-6H-pyrimido[5,4-d][1]benzazepine-6-thione] was 5 to 25 nM; that for `Cc1ccnc(C)c1Nc1ncc2c(n1)-c1ccc(C(F)(F)F)cc1NC(=S)C2` [Compound I-98, 2-[(2,4-dimethylpyridin-3-yl)amino]-9-(trifluoromethyl)-5,7-dihydro-6H-pyrimido[5,4-d][1]benzazepine-6-thione] was above 25 nM.
As to `Cc1ccc2c(c1)NC(=S)Cc1cnc(Nc3cc(CCCN(C)C)cnc3C)nc1-2` [Compound I-60, 2-({5-[3-(dimethylamino)propyl]-2-methylpyridin-3-yl}amino)-9-methyl-5,7-dihydro-6H-pyrimido[5,4-d][1]benzazepine-6-thione], the IC50 is below 5 nM.
The value for `Cc1nc(N(C)CCCN(C)C)ccc1Nc1ncc2c(n1)-c1ccc(Cl)cc1NC(=S)C2` [Compound I-41, 9-chloro-2-({6-[[3-(dimethylamino)propyl](methyl)amino]-2-methylpyridin-3-yl}amino)-5,7-dihydro-6H-pyrimido[5,4-d][1]benzazepine-6-thione] was 5 to 25 nM; that for `Cc1nc2c(cc1Nc1ncc3c(n1)-c1ccc(C(F)(F)F)cc1NC(=S)C3)CCC(N(C)C)C2` (stereo not shown) [Compound I-122, 2-{[7-(dimethylamino)-2-methyl-5,6,7,8-tetrahydroquinolin-3-yl]amino}-9-(trifluoromethyl)-5,7-dihydro-6H-pyrimido[5,4-d][1]benzazepine-6-thione] was 5 to 25 nM; that for `Cc1nc2c(cc1Nc1ncc3c(n1)-c1ccc(C(F)(F)F)cc1NC(=S)C3)C[C@H](N(C)C)CC2` [Compound I-113, 2-{[(6R)-6-(dimethylamino)-2-methyl-5,6,7,8-tetrahydroquinolin-3-yl]amino}-9-(trifluoromethyl)-5,7-dihydro-6H-pyrimido[5,4-d][1]benzazepine-6-thione] was below 5 nM.
As for `Cc1nc(NCCCN(C)C)ccc1Nc1ncc2c(n1)-c1ccc(Cl)cc1NC(=S)C2` [Compound I-76, 9-chloro-2-[(6-{[3-(dimethylamino)propyl]amino}-2-methylpyridin-3-yl)amino]-5,7-dihydro-6H-pyrimido[5,4-d][1]benzazepine-6-thione], the IC50 was below 5 nM.
To `Cc1ncc(CCCCN(C)C)cc1Nc1ncc2c(n1)-c1ccc(Cl)cc1NC(=S)C2` [Compound I-89, 9-chloro-2-({5-[4-(dimethylamino)butyl]-2-methylpyridin-3-yl}amino)-5,7-dihydro-6H-pyrimido[5,4-d][1]benzazepine-6-thione] belongs below 5 nM; to `CN(C)CCCN(C)c1ccc(Nc2ncc3c(n2)-c2ccc(Cl)cc2NC(=S)C3)cn1` [Compound I-71, 9-chloro-2-({6-[[3-(dimethylamino)propyl](methyl)amino]pyridin-3-yl}amino)-5,7-dihydro-6H-pyrimido[5,4-d][1]benzazepine-6-thione], 5 to 25 nM.
Turning to `COc1ccc2c(c1)NC(=S)Cc1cnc(Nc3cc(CCCN(C)C)cnc3C)nc1-2` [Compound I-1, 2-({5-[3-(dimethylamino)propyl]-2-methylpyridin-3-yl}amino)-9-methoxy-5,7-dihydro-6H-pyrimido[5,4-d][1]benzazepine-6-thione], the IC50 is below 5 nM.
